Experiments:
Test in all cases: relative viability (nuclei count vs DMSO), 5 days (fraction); higher = more cells survive
[1] = compound: C1/C(=C\C2=CC=CS2)/C(=O)/C(=C/C3=CC=CS3)/C1 + COc1cccc2cc(-c3nc([C@H]4CC[C@H](C(=O)O)CC4)n4ncnc(N)c34)[nH]c12 [OSI-027] (partner 0.5 µM)
Summary of the method: (§1)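 A single step with final 0.05% Triton X-100, 1% formaldehyde and 1 ug/ml Hoechst fixed the cells and stained nuclei 5 days after treatment. Lung cancer cell lines in 1536-well plates had been treated by pin tool the day after seeding with one drug alone or a fixed anchor-drug dose plus five library-drug doses (not always all listed) in √10 steps, and nuclei were counted on 4× images. Relative viability is the ratio of nuclei in treated wells to nuclei in vehicle wells, taken as the median of duplicate plates.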

[2] = compound: C1/C(=C\C2=CC=CS2)/C(=O)/C(=C/C3=CC=CS3)/C1 + Nc1ncn([C@H]2C[C@H](O)[C@@H](CO)O2)c(=O)n1 [Decitabine] (partner 2 µM)
Summary of the method: as §1

TPCA-1 + Decitabine = compound: C1=CC(=CC=C1C2=CC(=C(S2)NC(=O)N)C(=O)N)F [TPCA-1] + Nc1ncn([C@H]2C[C@H](O)[C@@H](CO)O2)c(=O)n1 [Decitabine] (partner 2 µM)
Summary of the method: as §1

Lestaurtinib + Foretinib = compound: C[C@]12O[C@H](C[C@]1(O)CO)n1c3ccccc3c3c4c(c5c6ccccc6n2c5c31)CNC4=O [Lestaurtinib] + COc1cc2c(Oc3ccc(NC(=O)C4(C(=O)Nc5ccc(F)cc5)CC4)cc3F)ccnc2cc1OCCCN1CCOCC1 [Foretinib] (partner 0.25 µM)
Summary of the method: as §1

| Cell Line | relative viability ([1]; first compound 0.2 µM) | relative viability ([1]; first compound 0.6325 µM) | relative viability ([1]; first compound 2 µM) | relative viability ([1]; first compound 6.325 µM) | relative viability ([1]; first compound 20 µM) | relative viability ([2]; first compound 0.2 µM) | relative viability ([2]; first compound 0.6325 µM) | relative viability ([2]; first compound 2 µM) | relative viability ([2]; first compound 6.325 µM) | relative viability ([2]; first compound 20 µM) | relative viability (TPCA-1 + Decitabine; first compound 0.04 µM) | relative viability (TPCA-1 + Decitabine; first compound 0.1265 µM) | relative viability (TPCA-1 + Decitabine; first compound 0.4 µM) | relative viability (TPCA-1 + Decitabine; first compound 1.265 µM) | relative viability (TPCA-1 + Decitabine; first compound 4 µM) | relative viability (Lestaurtinib + Foretinib; first compound 0.005 µM) | relative viability (Lestaurtinib + Foretinib; first compound 0.01581 µM) | relative viability (Lestaurtinib + Foretinib; first compound 0.05 µM) | relative viability (Lestaurtinib + Foretinib; first compound 0.1581 µM) | relative viability (Lestaurtinib + Foretinib; first compound 0.5 µM) |
| --- | --- | --- | --- | --- | --- | --- | --- | --- | --- | --- | --- | --- | --- | --- | --- | --- | --- | --- | --- | --- |
| NCI-H322M | 0.559 | 0.658 | 0.652 | 0.564 | 0.516 | 0.654 | 0.63 | 0.743 | 0.654 | 0.678 | 0.729 | 0.638 | 0.74 | 0.682 | 0.486 | 0.935 | 1.02 | 0.523 | 0.609 | 0.45 |
| NCI-H358 | 0.807 | 0.801 | 0.914 |  | 0.651 | 0.217 | 0.207 | 0.212 | 0.203 | 0.192 | 0.224 | 0.215 | 0.217 | 0.214 | 0.153 | 0.621 | 0.436 | 0.358 | 0.201 | 0.108 |
| NCI-H441 | 0.795 | 0.661 | 0.548 | 0.602 | 0.596 | 0.265 | 0.267 | 0.247 | 0.234 | 0.414 | 0.252 | 0.247 | 0.229 | 0.48 | 0.239 | 1.07 | 1.02 | 0.795 | 0.933 | 0.277 |
| NCI-H460 | 0.743 | 0.81 | 0.747 | 0.515 | 0.605 | 0.454 | 0.548 | 0.481 | 0.473 | 0.449 | 0.521 | 0.461 |  | 0.453 | 0.476 | 0.96 | 1.11 | 0.951 | 1.28 | 0.9 |
| NCI-H520 | 0.265 | 0.269 | 0.295 | 0.306 | 0.244 | 0.597 | 0.518 | 0.548 |  | 0.492 | 0.522 | 0.35 | 0.573 | 0.516 | 0.331 | 0.713 | 0.992 | 0.698 | 0.342 | 0.228 |
| NCI-H596 | 0.76 | 0.781 | 1.01 | 0.699 | 0.794 | 1.04 | 1.13 | 0.992 | 1.05 | 1.02 | 1.02 | 0.997 | 1.07 | 1.1 | 1.07 | 0.724 | 0.946 | 0.82 | 1.1 | 0.671 |
| NCI-H647 | 0.624 | 0.716 | 0.67 | 0.391 | 0.684 | 0.43 | 0.424 | 0.32 | 0.441 | 0.357 | 0.475 | 0.433 | 0.385 | 0.4 | 0.346 | 1.41 | 1.15 | 0.705 | 0.478 | 0.16 |
| NCI-H650 | 0.578 | 0.465 | 0.591 | 0.53 | 0.485 | 0.311 | 0.293 | 0.293 | 0.307 | 0.306 | 0.347 | 0.359 | 0.338 | 0.331 | 0.3 | 1.04 | 1.17 | 0.839 | 0.689 | 0.584 |
| NCI-H661 | 0.766 | 0.753 | 0.736 | 0.664 | 0.735 | 0.605 | 0.567 | 0.56 | 0.475 | 0.496 | 0.533 | 0.58 | 0.597 | 0.602 | 0.436 | 1.02 | 0.935 | 1.02 | 0.933 | 0.421 |
| NCI-H727 | 0.716 | 0.58 | 0.975 | 0.592 | 0.582 | 0.939 | 0.976 | 1.2 |  | 0.981 | 0.946 | 0.787 | 0.943 | 0.788 | 0.576 | 1.05 | 0.991 | 1.05 | 0.756 | 0.33 |
| NCI-H838 | 0.412 | 0.38 | 0.409 | 0.491 | 0.365 | 0.42 | 0.473 | 0.468 | 0.448 | 0.449 | 0.466 | 0.442 | 0.532 | 0.44 | 0.44 | 1.12 | 1.04 | 0.869 | 0.519 | 0.26 |
| NCI-H1355 | 0.481 | 0.42 | 0.412 | 0.335 | 0.424 | 0.369 | 0.388 | 0.319 | 0.304 | 0.325 | 0.365 | 0.35 | 0.342 | 0.346 | 0.354 | 1.03 | 1.08 | 0.696 | 0.802 | 0.356 |
| NCI-H1395 | 0.672 | 0.614 | 0.772 | 0.597 | 0.643 | 0.729 | 0.777 | 0.754 | 0.679 | 0.729 | 0.791 | 0.694 | 0.753 | 0.797 | 0.695 | 1.01 | 0.911 | 0.861 | 0.824 | 0.479 |
| NCI-H1437 | 0.866 | 0.782 | 0.889 | 0.88 | 0.834 | 0.547 | 0.521 | 0.508 | 0.518 | 0.612 | 0.601 | 0.566 | 0.572 | 0.566 | 0.669 | 1.35 | 1.4 | 1.29 | 1.17 | 1.07 |
| NCI-H1650 | 0.727 | 0.713 | 0.743 | 0.544 | 0.733 | 0.484 | 0.374 | 0.442 | 0.499 | 0.354 | 0.424 | 0.42 | 0.433 | 0.382 | 0.397 | 1.03 | 1.24 | 1.37 | 1.26 | 0.694 |
| NCI-H1651 | 0.684 | 0.803 | 0.815 | 0.676 | 0.789 | 0.616 | 0.646 | 0.868 | 0.357 | 0.587 | 0.66 | 0.578 | 0.578 | 0.546 | 0.217 | 0.85 | 0.8 | 0.844 | 0.865 | 0.53 |
